# Data published in patent US20240424115A1, “LONG-ACTING INTERLEUKIN-15 RECEPTOR AGONISTS AND RELATED IMMUNOTHERAPEUTIC COMPOSITIONS AND METHODS” (Nektar Therapeutics, priority 2017, published 2024).
# Where “and” joins values, the source holds several entries; their conditions need not be identical. Equal entries are not always repeated. Where two headings read alike, the source gives them in different places.
# Assays:
# IL-15Rα = IL-15Rα (Homo sapiens, UniProt Q13261); assay: Receptor affinity for IL-15Rα by surface plasmon resonance (BIAcore); type: binding; details: for ka: IL-15Rα:Fc captured by anti-Fc
# Sequence of IL-15Rα (Q13261 31-205 limits assumed): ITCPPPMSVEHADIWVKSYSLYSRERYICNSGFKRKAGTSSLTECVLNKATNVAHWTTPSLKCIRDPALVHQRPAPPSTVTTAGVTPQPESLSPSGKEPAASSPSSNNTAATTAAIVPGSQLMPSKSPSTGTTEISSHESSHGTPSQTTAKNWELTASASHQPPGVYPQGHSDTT
# Description: The affinities of IL-15 and exemplary long acting rIL-15 receptor agonists were measured using Surface Plasmon Resonance (“SPR”) using a BIAcore™ SPR system. Briefly, the surface of a Biacore CM5 sensor chip was activated using a 1:1 mixture of NHS: EDC to generate active NHS esters. Goat anti-human Fc antibody was covalently attached to the surface by injecting it for five minutes in 10 mM sodium acetate (pH 4). There were approximately 8000 RU of antibodies bound to the surface. Any remaining NHS ester was then quenched with ethanolamine.
# At the initiation of each injection cycle, IL-15-Rα-Fc was captured on a sensor chip channel by a five-minute injection step in PBSP. Typically, 150-200 RU of receptors were bound on the surface.
# (§1) Long acting rIL-15 receptor agonist test articles were diluted to 10 µM in PBS (containing 0.05% Tween 20 and 0.1 mg/ml BSA). A series of 3-fold dilutions were made and injected onto a sensor chip which was coated with IL-15Rα. The affinities were measured by determining the ka and kd rates separately, and the ratio between kd and ka was used to calculate the Kd values.
# The affinities of exemplary long-acting IL-15 receptor agonists (test articles) for the IL-15 α receptor were measured and compared to IL-15. Affinity was measured by BIAcore using IL-15Rα:Fc captured by immobilized anti-Fc.
# as §1, with “The” for “Long acting rIL-15 receptor agonist”, “μM” for “µM”, “between ka and” for “between”, “kd” for “kd and ka”, “[…]” for “Kd”
# [1] = PK (MRT) of long-acting IL-15 receptor agonists (Table 2B); type: in vivo; details: species not stated
# CD4, CD8, and NK cells = assay: In vivo IL-15 signaling (STAT5 phosphorylation in lymphocytes) in non-human primates; set-up: species or system cynomolgus monkeys; details: NHP
# Description: In the study, cynomolgus monkeys (cyno), one female and one male, were each intravenously administered a single dose of Conjugate 2 (0.5 mg/kg). A series of blood samples were taken from each animal both prior to treatment (day-6 and-1) and at multiple intervals following treatment for assessment by flow cytometry of STAT5 phosphorylation in various types of lymphocytes (CD4, CD8, and NK cells). Results are provided in FIGS. 9A (CD4), 9B (CD8), and 9C (NK).
# (§2) Cynomolgus monkeys (n=3-4 males), were administered a single intravenous injection of Conjugate 1 at 0.003, 0.01, 0.1 mg/kg or a vehicle control. Blood samples were collected at the indicated time points pre and post dose (−5, −2, 1, 2, 3, 4, 5, 6, 7, 10, 14, 17 days) and subjected to flow cytometric analysis to examine pharmacodynamic effects within lymphocyte populations. Proliferation (% Ki-67) and JAK/STAT signaling (% pSTAT5) for NK cells, CD8 T cells, and CD4 T cells were examined, with the results shown in FIGS. 45A-C and FIGS. 46A-C, respectively.
# [2] = test system: NK cells, CD8 T cells, CD4 T cells; assay: In vivo PD study in non-human primates: lymphocyte cell numbers and proliferation; set-up: species or system cynomolgus monkeys
# Description: In the study, cynomolgus monkeys, one female and one male, were administered 500 μg/kg of Conjugate 2 intravenously. A series of blood samples were taken from each animal before treatment (day-6 and -1) and at multiple intervals following single dose treatment for assessment by flow cytometry of lymphocyte cell numbers (NK cells, CD8 T-cells, etc.) and activation.
# NK cell counts were determined to assess the ability of exemplary Conjugate 2 to induce sustained NK cell proliferation in non-human primates; results are shown in FIGS. 16A and 16B. NK cells and their proliferation in blood from cynomolgus monkey were identified by flow cytometry. Acquisition and analysis of NK cells (CD45+ CD3− CD16+) and their proliferation status (CD45+CD3−CD16+ Ki67+) were conducted using BD FACS DIVA software. Absolute values for NK cells and proliferating NK cells were used to calculate % Ki67 positivity within the NK population. Pre and post-treatment values were plotted using Prism.
# CD8 T cell counts were also determined as illustrated in FIG. 17 for each animal from pre-dose to 14 days post-administration. Specifically, CD8 T cells were defined as CD45+CD3+CD4−CD8+. Blood from the monkeys was also subject to immunophenotyping as previously described. In monkey, CD8 T cells increased in a sustained manner, an effect lasting for at least 10 days. This plot further exemplifies the ability of an exemplary long acting IL-15 receptor agonist, Conjugate 2, to induce proliferation and sustained increases in numbers of CD8 T-cells post-administration.
# In monkey, CD8 TEM cells were defined as CD45+CD3+CD4−CD8+CD45Ra−CD197− and CD8 Tcm were defined as CD45+CD3+CD4−CD8+CD45Ra−CD197+. Immunophenotyping was conducted by flow cytometry with sample acquisition on DIVA software and data analysis on Flowjo software. Graphs were plotted using Prism. […] The figures indicate that both CD8 effector and central memory T cell populations proliferate in response to exemplary Conjugate 2.
# In this study, cynomolgus monkeys (cyno), one female and one male, were each intravenously administered a single dose of Conjugate 1 (0.1 mg/kg). A series of blood samples were taken from each animal over a 14-day time course and subjected to flow cytometry analysis of various lymphocytes (CD8 T cells, Ki-67 percent positivity within total CD8, CD8 central memory T cells (TCM) and CD8 effector memory T cells (Tem), NK cells and Ki-67 percent positivity of NK cells).
# as §2
# In cynomolgus monkey, CD8 naïve and memory subpopulations were defined by CD45Ra, CD197 and CD95. […] Within the CD8 Tem, […] and Tscm populations, Conjugate 1 induced robust % Ki-67 expression in a dose dependent manner with detectable increases in proliferation marker positivity starting as early as day 2, reaching a maximum at day 5 and returning to baseline between days 10-14. The Ki-67 expression and kinetics within the CD8 populations support the sustained increase in CD8 T cell numbers shown in Example 27 and FIGS. 47A-D.
# [3] = cynomolgus monkey, each dose level, vs vehicle
substance,measurement,setting,value
mono-mPEG-SBA40K-IL-15 [Conjugate 1],ka,IL-15Rα; Table 2A,492000 M⁻¹ s⁻¹
same,dissociation rate constant (kd),IL-15Rα; Table 2A,0.000103 s⁻¹
same,Kd,"IL-15Rα; Table 2A, read-out: KD",0.209 nM
same,Kd,"IL-15Rα; Table 2B, read-out: IL-15Rα KD",0.201 nM and 0.209 nM
same,alpha receptor affinity of IL-15 retained,IL-15Rα; compared to IL-15,about 80%
same,PK (MRT),[1],21 h
same,pSTAT5 in CD8 T cells,"CD4, CD8, and NK cells; 0.1 and 0.01 mg/kg",dose-dependent increase in pSTAT5
same,dose level at which increase in % pSTAT5 in NK cells can be detected,"CD4, CD8, and NK cells; single i.v.",0.001 mg/kg
same,time NK cell numbers were sustained,"[2]; NHP, 0.1 and 0.01 mg/kg",up to 14 days
same,"CD4 T cell numbers, % Ki-67 and % pSTAT5","[2]; NHP, highest dose level 0.1 mg/kg","induced a small increase in CD4 T cell numbers, % Ki-67 and % pSTAT5"
same,day of maximal total CD8 T cell numbers,"[2]; NHP, single i.v.",~5 days
same,dose at which % Ki-67 positivity in CD8 T cells is detectable,"[2]; NHP, single i.v.",10 µg/kg
same,dose at which effect on total CD8 cell numbers can be detected,"[2]; NHP, single i.v.",3 µg/kg
same,dose level at which a significant increase in % Ki-67 in NK cells can be detected,"[2]; NHP, single i.v.",1 µg/kg
same,"first detectable increase in % Ki-67 in CD8 Tem, Tcm and Tscm","[2]; NHP, single i.v.",2 days
same,lowest dose level yielding a significant increase in NK cells,"[2]; NHP, single i.v.",10 µg/kg
same,"maximum of % Ki-67 in CD8 Tem, Tcm and Tscm","[2]; NHP, single i.v.",5 days
same,"return of % Ki-67 in CD8 Tem, Tcm and Tscm to baseline","[2]; NHP, single i.v.",10 to 14 days
same,time Ki-67 expression in NK cells can be sustained,"[2]; NHP, single i.v.",up to 14 days
same,time increase in total CD8 T cells is sustained,"[2]; NHP, single i.v.",over seven
same,time of maximum NK cell numbers after dosing,"[2]; NHP, single i.v.",five
same,increase in CD8 T cell numbers,"[2]; cyno, single i.v. 0.1 mg/kg",7-10 X
same,increase in CD8 Tcm numbers,"[2]; cyno, single i.v. 0.1 mg/kg",27-30 X
same,increase in CD8 Tem numbers,"[2]; cyno, single i.v. 0.1 mg/kg",21-33 X
same,increase in NK cells,"[2]; cyno, single i.v. 0.1 mg/kg",9-10 X
same,time increase in CD8 T cell numbers was sustained,[2]; [3],at least 10 days
same,time increase in NK cell numbers was sustained,[2]; [3],at least 14 days
"IL-15: recombinant human IL-15 from E. coli, SEQ ID NO: 1, non-glycosylated, 12.9 kDa; unconjugated comparator",ka,IL-15Rα; Table 2A,578000 M⁻¹ s⁻¹
same,dissociation rate constant (kd),IL-15Rα; Table 2A,0.000149 s⁻¹
same,Kd,"IL-15Rα; Table 2A, read-out: KD",0.258 nM
same,Kd,"IL-15Rα; Table 2B, read-out: IL-15Rα KD",0.258 nM
